Measurements reported in US20210268450A1, “COMPOSITION USEFUL FOR PRODUCTION OF ACIDIC GAS SEPARATION MEMBRANE” (SUMITOMO CHEMICAL COMPANY, LIMITED, priority 2018, published 2021).

Assay: acid dissociation constant in a 25° C. aqueous solution (titration method)
Type: physicochemical
Details: for acid dissociation constant in a 25° C. aqueous solution 1: first constant; for acid dissociation constant 2: second constant
Description: This acid dissociation constant is a value as measured by a known titration method based on the definition of Bronsted (Shinpan Bunseki Kagaku Jikken, Nihon Bunseki Kagakukai Hokkaido Shibu ed., pp. 219 to 237).

SMILES | acid dissociation constant in a 25° C. aqueous solution 1 | acid dissociation constant 2 | acid dissociation constant 3 (third constant) | acid dissociation constant in a 25° C. aqueous solution (single constant)
Oc1cccc(O)c1 [Weakly acidic organic compound 1, resorcinol] | 9.3 | 9.8 | – | –
Oc1cc(O)cc(O)c1 [Weakly acidic organic compound 2, phloroglucinol] | 8.0 | 9.2 | 14.0 | –
CS(=O)(=O)Nc1ccccc1 [Weakly acidic organic compound 4, N-phenylmethanesulfonamide] | – | – | – | 12.9
Oc1cccc(O)c1O [Weakly acidic organic compound 5, pyrogallol] | 9.0 | 11.6 | – | –
Oc1ccccc1O [Weakly acidic organic compound 6, catechol] | 9.1 | 12.1 | – | –
